Where two headings read alike, the source gives them in different places.
Columns and labels:
ALCAT1 [1] = molecular target: T1, ALCAT1 (Homo sapiens (Human), UniProt Q6UWP7); experiment: In vitro acyltransferase assay for ALCAT1 inhibitors; format: biochemical; conditions: for IC50: ALCAT1 enzyme activity
Outline: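 Membrane fractions from Sf9 cells expressing human ALCAT1 incubated 30 min at room temperature with 100 µM MLCL or LPG and 25 µM [14C]acyl-CoA (or 100 µM NBD-CoA) in 50 mM Tris/HCl pH 7.0.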
Target sequence in this assay (Q6UWP7 whole entry): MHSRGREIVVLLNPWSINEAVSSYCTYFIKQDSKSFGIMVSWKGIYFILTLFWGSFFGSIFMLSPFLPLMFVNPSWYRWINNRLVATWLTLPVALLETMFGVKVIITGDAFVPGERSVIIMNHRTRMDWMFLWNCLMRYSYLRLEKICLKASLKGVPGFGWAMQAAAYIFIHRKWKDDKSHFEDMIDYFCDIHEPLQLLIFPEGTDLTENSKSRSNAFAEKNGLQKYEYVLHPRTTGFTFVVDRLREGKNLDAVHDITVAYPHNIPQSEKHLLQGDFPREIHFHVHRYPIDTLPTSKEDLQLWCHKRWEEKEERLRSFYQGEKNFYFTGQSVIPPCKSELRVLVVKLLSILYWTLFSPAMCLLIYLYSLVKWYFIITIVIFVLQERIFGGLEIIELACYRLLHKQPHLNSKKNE

ALCAT1 [2] = molecular target: T1, ALCAT1; experiment: Cell-based assay for ALCAT inhibitor compounds (H9C2 cells); conditions: H9c2, 3 μM compound; H9C2 vector cell line and H9C2 with stable overexpression of ALCAT1
Experimental: The assay was performed on the H9C2 vector cell line and H9C2 with stable overexpression of ALCAT1. Materials used in the protocol were CoA, LPG, compounds, chloroform, methanol, 0.9% KCl, 6-well-plates, 1.5 mL tubes, DMEM, FBS, P/S and PBS.
Cells were seeded in 6-well-plates, 8×10^5 cells/well, and cultured at 37° C. in 5% CO2 overnight.
Cells were washed once with ice-cold PBS, collected in ice-cold PBS and centrifuged at 5000 rpm for 5 min at 4° C. 200 μL of chloroform: methanol (2:1) was added to the cell pellet, which was vortexed to suspend the cells and incubated at RT for 1 hr.
40 μL of 0.9% KCl was added and the sample was vortexed before centrifugation at 10000 rpm for 5 min at RT. The aqueous phase (upper layer) was discarded and the organic phase (lower layer) was loaded to a TLC plate (10 cm×20 cm), 40 μL/sample.
The plates were developed in chloroform: methanol: water (65:25:4) for about 30 min and scanned using a Typhoon Scanner. The bands intensity was analysed using ImageJ and the inhibition activity of the tested compounds was calculated.
Compound inhibitors for ALCAT1 enzyme were analyzed by an in vitro cell-based assay as detailed above.
Target sequence in this assay (Q6UWP7 whole entry, species assumed): as the sequence (Q6UWP7 whole entry) above

[3] = 1 μM compound, in vitro enzymatic assay
[4] = read-out: IC50 values (upper bounds)
[5] = triplicates, GraphPad, read-out: IC50

SMILES	inhibition at 1 µM (ALCAT1 [1]; [3]) [%]	IC50 (ALCAT1 [1]; [4]) [nM]	IC50 (ALCAT1 [1]; [5]) [nM]	inhibition at 3 µM (ALCAT1 [2]) [%]	% inh @ 1 μM (ALCAT1 [1]; [3]) [%]
O=C(Nc1cc(-c2nnc(-c3ccco3)o2)ccc1F)c1cc(F)ccc1OCCF [Compound 312, 5-Fluoro-N-(2-fluoro-5-(5-(furan-2-yl)-1,3,4-oxadiazol-2-yl)phenyl)-2-(2-fluoroethoxy)benzamide]	98	< 100	33	4	
O=C(Nc1cc(-c2nnc(-c3ccco3)o2)ccc1F)c1ccccc1OCC(F)(F)F [Compound 313, N-(2-Fluoro-5-(5-(furan-2-yl)-1,3,4-oxadiazol-2-yl)phenyl)-2-(2,2,2-trifluoroethoxy)benzamide]	94		64	19	
O=C(Nc1cc(-c2nnc(-c3ccco3)o2)ccc1F)c1ccccc1OCC(F)F [Compound 314, 2-(2,2-Difluoroethoxy)-N-(2-fluoro-5-(5-(furan-2-yl)-1,3,4-oxadiazol-2-yl)phenyl)benzamide]	95	< 100	29	36	
O=C(Nc1cc(-c2nnc(-c3ccco3)o2)ccc1F)c1cc(Cl)ccc1OCC(F)F [Compound 317, 5-Chloro-2-(2,2-difluoroethoxy)-N-(2-fluoro-5-(5-(furan-2-yl)-1,3,4-oxadiazol-2-yl)phenyl)benzamide]	96	< 100	19	52	
O=C(Nc1cc(-c2nnc(-c3ccco3)o2)ccc1F)c1cc(Cl)ccc1OCCF [Compound 318, 5-Chloro-N-(2-fluoro-5-(5-(furan-2-yl)-1,3,4-oxadiazol-2-yl)phenyl)-2-(2-fluoroethoxy)benzamide]	98	< 100	24	36	
O=C(Nc1cc(-c2nnc(-c3ccco3)o2)ccc1F)c1cc(F)ccc1OCC(F)(F)F [Compound 319, 5-Fluoro-N-(2-fluoro-5-(5-(furan-2-yl)-1,3,4-oxadiazol-2-yl)phenyl)-2-(2,2,2-trifluoroethoxy)benzamide]	96		46	12	
O=C(Nc1cc(-c2nnc(-c3ccco3)o2)ccc1F)c1cc(F)ccc1OCC(F)F [Compound 320, 2-(2,2-Difluoroethoxy)-5-fluoro-N-(2-fluoro-5-(5-(furan-2-yl)-1,3,4-oxadiazol-2-yl)phenyl)benzamide]	96	< 100	34	17	
Cc1ccc(OCCF)c(C(=O)Nc2cc(-c3nnc(-c4ccco4)o3)ccc2F)c1 [Compound 321, N-(2-Fluoro-5-(5-(furan-2-yl)-1,3,4-oxadiazol-2-yl)phenyl)-2-(2-fluoroethoxy)-5-methylbenzamide]	94		38	75	92
Cc1ccc(OCC(F)(F)F)c(C(=O)Nc2cc(-c3nnc(-c4ccco4)o3)ccc2F)c1 [Compound 322, N-(2-fluoro-5-(5-(furan-2-yl)-1,3,4-oxadiazol-2-yl)phenyl)-5-methyl-2-(2,2,2-trifluoroethoxy)benzamide]	94		61	26	
Cc1ccc(OCC(F)F)c(C(=O)Nc2cc(-c3nnc(-c4ccco4)o3)ccc2F)c1 [Compound 323, 2-(2,2-Difluoroethoxy)-N-(2-fluoro-5-(5-(furan-2-yl)-1,3,4-oxadiazol-2-yl)phenyl)-5-methylbenzamide]	96	< 100	26	14	
CCOc1ccc(CC)cc1C(=O)Nc1cc(-c2nnc(-c3ccco3)o2)ccn1 [Compound 373, 2-Ethoxy-5-ethyl-N-(4-(5-(furan-2-yl)-1,3,4-oxadiazol-2-yl)pyridin-2-yl)benzamide]	98		38	3	
COc1ccc(C(F)(F)F)cc1C(=O)Nc1cc(-c2nnc(-c3ccco3)o2)ccn1 [Compound 396, N-(4-(5-(Furan-2-yl)-1,3,4-oxadiazol-2-yl)pyridin-2-yl)-2-methoxy-5-(trifluoromethyl)benzamide]	96		78	45	
COc1ccc(OC(F)(F)F)cc1C(=O)Nc1cc(-c2nnc(-c3ccco3)o2)ccn1 [Compound 400, N-(4-(5-(Furan-2-yl)-1,3,4-oxadiazol-2-yl)pyridin-2-yl)-2-methoxy-5-(trifluoromethoxy)benzamide]	96		62	50	
COc1ccc(OC(F)(F)F)cc1C(=O)Nc1cc(-c2nnc(-c3ccco3)o2)ccc1F [Compound 405, N-(2-Fluoro-5-(5-(furan-2-yl)-1,3,4-oxadiazol-2-yl)phenyl)-2-methoxy-5-(trifluoromethoxy)benzamide]	98	< 100	19	52	
COc1ccc(C(F)(F)F)cc1C(=O)Nc1cc(-c2nnc(-c3ccco3)o2)ccc1F [Compound 416, N-(2-Fluoro-5-(5-(furan-2-yl)-1,3,4-oxadiazol-2-yl)phenyl)-2-methoxy-5-(trifluoromethyl)benzamide]	98	< 100	19	45	
CCOc1ccc(CC)cc1C(=O)N(c1cc(-c2nnc(-c3ccco3)o2)ccc1F)P(=O)(O)O [Compound 497, (2-ethoxy-5-ethylbenzoyl) (2-fluoro-5-(5-(furan-2-yl)-1,3,4-oxadiazol-2-yl)phenyl)phosphoramidic acid]	90		72	75	

Source: patent publication US11208404B2 (PERENNA PHARMACEUTICALS, INC., priority 2017, dated 2021)
